Reference: ChEMBL document CHEMBL3875230, “Structure-Guided Design of Novel, Potent, and Selective Macrocyclic Plasma Kallikrein Inhibitors” (ACS Med Chem Lett, 2017)

What was measured:
[1] = biological target: Plasma kallikrein (Homo sapiens, UniProt P03952); test: Inhibition of human plasma kallikrein using D-Pro-Phe-Arg-pNA as substrate preincubated for 30 mins followed by substrate addition; format: cell-free
[2] = biological target: Coagulation factor X (Homo sapiens, UniProt P00742); test: Inhibition of factor 10a (unknown origin) using N-Z-D-Arg-Gly-Arg-pNA as substrate preincubated for 30 mins followed by substrate addition
Chain of Coagulation factor X (P00742 41-179 limits assumed): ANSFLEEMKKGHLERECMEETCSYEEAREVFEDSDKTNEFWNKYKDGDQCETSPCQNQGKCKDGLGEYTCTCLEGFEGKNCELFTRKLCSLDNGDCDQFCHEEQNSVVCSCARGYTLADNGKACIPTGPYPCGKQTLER
Chain of Coagulation factor X (P00742 235-488 limits assumed): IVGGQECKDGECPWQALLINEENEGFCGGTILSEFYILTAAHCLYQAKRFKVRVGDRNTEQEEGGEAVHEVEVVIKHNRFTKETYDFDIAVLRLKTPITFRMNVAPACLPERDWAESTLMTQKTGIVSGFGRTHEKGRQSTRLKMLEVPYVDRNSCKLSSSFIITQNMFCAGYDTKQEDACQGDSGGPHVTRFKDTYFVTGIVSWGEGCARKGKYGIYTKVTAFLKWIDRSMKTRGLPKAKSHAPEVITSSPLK

[3] = biological target: Plasminogen (Homo sapiens, UniProt P00747); test: Inhibition of Lys-plasmin (unknown origin) using Tosyl-Gly-Pro-Lys-4-nitranilide as substrate preincubated for 30 mins followed by substrate addition
Chain of Plasminogen (P00747 97-580 limits assumed): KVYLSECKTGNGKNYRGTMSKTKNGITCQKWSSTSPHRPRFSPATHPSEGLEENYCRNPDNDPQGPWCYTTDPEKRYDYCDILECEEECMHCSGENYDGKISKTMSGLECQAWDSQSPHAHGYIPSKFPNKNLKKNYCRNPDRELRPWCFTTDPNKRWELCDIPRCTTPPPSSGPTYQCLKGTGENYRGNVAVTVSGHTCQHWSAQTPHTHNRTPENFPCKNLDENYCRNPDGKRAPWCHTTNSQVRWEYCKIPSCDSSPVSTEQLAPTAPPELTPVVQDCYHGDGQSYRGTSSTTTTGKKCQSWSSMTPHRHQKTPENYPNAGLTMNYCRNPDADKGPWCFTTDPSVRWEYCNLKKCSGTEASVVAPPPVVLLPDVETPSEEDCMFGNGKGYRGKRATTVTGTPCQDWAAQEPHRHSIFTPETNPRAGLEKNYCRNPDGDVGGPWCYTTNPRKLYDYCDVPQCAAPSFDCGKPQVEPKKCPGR
Chain of Plasminogen (P00747 581-810 limits assumed): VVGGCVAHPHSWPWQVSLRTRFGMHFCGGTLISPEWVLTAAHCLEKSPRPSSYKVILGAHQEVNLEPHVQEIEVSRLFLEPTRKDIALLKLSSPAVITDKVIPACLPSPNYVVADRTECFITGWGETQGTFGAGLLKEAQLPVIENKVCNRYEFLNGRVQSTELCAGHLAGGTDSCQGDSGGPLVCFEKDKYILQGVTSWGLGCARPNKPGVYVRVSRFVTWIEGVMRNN

[4] = Inhibition of bovine trypsin using S-2765 as substrate incubated for 30 mins followed by substrate addition; design: species or system Bos taurus
[5] = biological target: Coagulation factor XI (Homo sapiens, UniProt P03951); test: Inhibition of factor 11a (unknown origin) using S-2366 as substrate incubated for 30 mins followed by substrate addition
Chain of Coagulation factor XI (P03951 19-387 limits assumed): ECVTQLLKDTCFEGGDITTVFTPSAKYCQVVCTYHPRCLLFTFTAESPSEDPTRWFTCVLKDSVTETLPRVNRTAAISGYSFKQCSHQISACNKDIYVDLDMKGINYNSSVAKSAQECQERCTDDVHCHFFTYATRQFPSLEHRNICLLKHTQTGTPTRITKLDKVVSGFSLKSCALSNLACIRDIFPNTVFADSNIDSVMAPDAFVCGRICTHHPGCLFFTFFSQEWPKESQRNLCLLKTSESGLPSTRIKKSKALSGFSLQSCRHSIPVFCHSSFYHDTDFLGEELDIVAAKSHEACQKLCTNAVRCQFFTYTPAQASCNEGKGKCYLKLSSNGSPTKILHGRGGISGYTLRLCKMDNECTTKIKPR
Chain of Coagulation factor XI (P03951 388-625 limits assumed): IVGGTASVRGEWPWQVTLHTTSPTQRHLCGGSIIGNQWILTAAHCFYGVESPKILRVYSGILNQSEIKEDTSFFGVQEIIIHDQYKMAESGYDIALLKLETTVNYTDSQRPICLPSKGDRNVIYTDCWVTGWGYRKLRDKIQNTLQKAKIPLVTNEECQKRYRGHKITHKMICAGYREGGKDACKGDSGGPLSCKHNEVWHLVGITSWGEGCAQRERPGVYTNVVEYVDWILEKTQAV

[6] = biological target: T1, Coagulation factor XII (Homo sapiens, UniProt P00748); test: Inhibition of factor 12a (unknown origin) using D-Pro-Phe-Arg-pNA as substrate preincubated for 30 mins followed by substrate addition
T1 sequence (P00748 whole entry): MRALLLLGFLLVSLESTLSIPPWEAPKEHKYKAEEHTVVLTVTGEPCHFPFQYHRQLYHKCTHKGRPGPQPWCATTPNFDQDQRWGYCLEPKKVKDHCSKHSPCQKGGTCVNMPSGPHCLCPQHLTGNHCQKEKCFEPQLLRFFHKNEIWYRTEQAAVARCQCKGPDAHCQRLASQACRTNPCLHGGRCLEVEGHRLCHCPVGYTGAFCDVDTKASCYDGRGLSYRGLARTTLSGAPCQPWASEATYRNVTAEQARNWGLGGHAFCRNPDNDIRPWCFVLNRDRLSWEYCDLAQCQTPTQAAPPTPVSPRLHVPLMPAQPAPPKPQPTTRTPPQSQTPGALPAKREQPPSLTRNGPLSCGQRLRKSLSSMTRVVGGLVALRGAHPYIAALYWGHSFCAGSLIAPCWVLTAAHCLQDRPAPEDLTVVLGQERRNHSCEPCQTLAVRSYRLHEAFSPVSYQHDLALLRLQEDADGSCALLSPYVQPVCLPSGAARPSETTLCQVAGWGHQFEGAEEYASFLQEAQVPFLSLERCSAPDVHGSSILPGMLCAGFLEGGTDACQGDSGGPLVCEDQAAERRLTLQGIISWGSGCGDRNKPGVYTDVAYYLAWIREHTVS

[7] = biological target: Tissue-type plasminogen activator (Homo sapiens, UniProt P00750); test: Inhibition of tPA (unknown origin) using Methylsulfonyl-D-Phe-Gly-Arg-pNA as substrate preincubated for 30 mins followed by substrate addition
Chain of Tissue-type plasminogen activator (P00750 whole entry): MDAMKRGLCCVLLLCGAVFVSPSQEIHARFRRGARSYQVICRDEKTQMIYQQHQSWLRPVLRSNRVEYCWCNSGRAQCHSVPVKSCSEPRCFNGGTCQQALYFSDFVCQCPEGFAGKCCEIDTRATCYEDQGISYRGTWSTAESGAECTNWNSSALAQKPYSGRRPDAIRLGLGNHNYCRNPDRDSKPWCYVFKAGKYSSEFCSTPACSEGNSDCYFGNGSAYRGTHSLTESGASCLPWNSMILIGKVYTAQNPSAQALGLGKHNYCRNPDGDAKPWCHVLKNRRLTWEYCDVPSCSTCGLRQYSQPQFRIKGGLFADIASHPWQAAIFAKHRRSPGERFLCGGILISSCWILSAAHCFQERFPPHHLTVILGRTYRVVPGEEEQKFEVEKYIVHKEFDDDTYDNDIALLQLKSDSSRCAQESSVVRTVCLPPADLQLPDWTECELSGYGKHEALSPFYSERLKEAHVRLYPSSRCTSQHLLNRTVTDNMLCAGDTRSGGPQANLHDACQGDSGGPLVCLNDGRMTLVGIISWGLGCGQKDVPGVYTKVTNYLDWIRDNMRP

[8] = biological target: Prothrombin (Homo sapiens, UniProt P00734); test: Inhibition of alpha-thrombin (unknown origin) using D-Phe-Pip-Arg-pNA as substrate preincubated for 30 mins followed by substrate addition
[9] = Half life in rat liver microsomes in presence of NADPH by LC/MS/MS analysis; format: ADME
[10] = Apparent permeability across MDCK cells at 1 uM; format: ADME, cell-based, Canis lupus familiaris; conditions: dog
[11] = Cmax in Sprague-Dawley rat plasma at 20 mg/kg administered via oral gavage measured up to 24 hrs by LC-MS/MS analysis; format: ADME, organism-based; design: dose 20 mg/kg, route oral
[12] = Oral bioavailability in Sprague-Dawley rat plasma at 20 mg/kg administered via gavage measured up to 24 hrs by LC-MS/MS analysis; format: ADME, organism-based

Chain of Plasma kallikrein (P03952 20-390 limits assumed): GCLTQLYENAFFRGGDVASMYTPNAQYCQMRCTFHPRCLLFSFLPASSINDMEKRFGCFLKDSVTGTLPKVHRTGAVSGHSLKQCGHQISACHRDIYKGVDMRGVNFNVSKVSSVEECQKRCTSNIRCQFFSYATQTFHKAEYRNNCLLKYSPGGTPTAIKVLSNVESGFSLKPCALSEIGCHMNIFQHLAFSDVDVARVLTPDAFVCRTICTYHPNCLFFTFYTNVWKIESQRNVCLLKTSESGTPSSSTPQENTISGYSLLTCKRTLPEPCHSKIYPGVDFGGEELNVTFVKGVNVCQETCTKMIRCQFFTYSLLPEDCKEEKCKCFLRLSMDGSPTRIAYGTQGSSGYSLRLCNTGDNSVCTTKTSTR
Chain of Plasma kallikrein (P03952 391-638 limits assumed): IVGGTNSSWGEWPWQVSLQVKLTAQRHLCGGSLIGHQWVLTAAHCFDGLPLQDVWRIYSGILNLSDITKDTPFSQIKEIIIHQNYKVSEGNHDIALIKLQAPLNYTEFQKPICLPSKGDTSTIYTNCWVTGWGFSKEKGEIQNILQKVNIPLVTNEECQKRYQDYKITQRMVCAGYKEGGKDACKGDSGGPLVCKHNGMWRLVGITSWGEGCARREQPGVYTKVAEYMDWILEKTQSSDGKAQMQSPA

Structure (SMILES)	IC50 [1] [µM]	IC50 [2] [µM]	IC50 [3] [µM]	IC50 [4] [µM]	IC50 [5] [µM]	IC50 [6] [µM]	IC50 [7] [µM]	IC50 [8] [µM]	half-life [9] [min]	Papp at 1 µM [10] [×10⁻⁶ cm/s]	Cmax [11] [ng/mL]	bioavailability [12] [%]
Cc1nc(N)cc2c1CNC(=O)c1cnn(c1)Cc1ccc(Cn3cccn3)cc1OCCCCCCO2	8.31	–	–	–	–	–	–	–	–	–	–	–
Cc1nc(N)cc2c1CNC(=O)c1cnn(c1)Cc1ccc(Cn3cccn3)cc1OCCCC=CCCO2 (mixture of isomers)	0.0048	> 200	21.4	> 200	11.7	> 200	> 200	> 200	< 5	–	–	–
Cc1cc(N)nc2c1CNC(=O)c1cnn(c1)Cc1ccc(Cn3cccn3)cc1OCC/C=C\CCO2	> 3000	–	–	–	–	–	–	–	–	–	–	–
Cc1cc(N)nc2c1CNC(=O)c1cnn(c1)Cc1ccc(Cn3cccn3)cc1OCC/C=C/CCO2	53.2	–	–	–	–	–	–	–	–	–	–	–
Cc1nc(N)ccc1CNC(=O)c1cnn(Cc2ccc(Cn3cccn3)cc2)c1	0.0024	> 1000	> 1000	578	106	> 1000	> 1000	> 1000	48	< 1	25	6
Cc1nc(N)cc2c1CNC(=O)c1cnn(c1)Cc1ccc(Cn3cccn3)cc1OCCC/C=C\CCO2	0.0423	> 200	> 200	> 200	40.9	> 200	> 200	> 200	< 5	< 1	–	–
Cc1nc(N)cc2c1CNC(=O)c1cnn(c1)Cc1ccc(Cn3cccn3)cc1OCCC/C=C/CCO2	0.002	> 200	> 200	> 200	3.61	> 200	> 200	> 200	< 5	< 1	–	–

Further lines, results first:

IC50 [1] [µM]	IC50 [2] [µM]	IC50 [3] [µM]	IC50 [4] [µM]	IC50 [5] [µM]	IC50 [6] [µM]	IC50 [7] [µM]	IC50 [8] [µM]	half-life [9] [min]	Papp at 1 µM [10] [×10⁻⁶ cm/s]	Cmax [11] [ng/mL]	bioavailability [12] [%]	Structure (SMILES)
1.57	–	–	–	–	–	–	–	–	–	–	–	Cc1nc(N)cc2c1CNC(=O)c1cnn(c1)Cc1ccc(Cn3cccn3)cc1OCC/C=C\CCO2
0.153	> 200	9.97	> 200	12.7	> 200	> 200	> 200	< 5	< 1	–	–	Cc1nc(N)cc2c1CNC(=O)c1cnn(c1)Cc1ccc(Cn3cccn3)cc1OCC/C=C/CCCO2
1.21	–	–	–	–	–	–	–	–	–	–	–	Cc1nc(N)cc2c1CNC(=O)c1cnn(c1)Cc1ccc(Cn3cccn3)cc1OCC/C=C/CCO2
